Patent US20060275339A1, “Use of antiseptic active principles in pmma bone cements” (Biomet Deutschland, priority 2003, published 2006)

Test system: germs
Assay: Prevention of colonisation of the PMMA bone cement surface with germs (FIGS. 1a and 1b)
Assay type: cell-based
Conditions: 0.155% by weight admixed with PMMA bone cement (PALAMED plain); compared with admixing of 0.86% by weight of gentamicin

With polyhexamethylenebiguanide as the substance, how does the “biological efficacy in preventing colonisation of the cement surface with germs” value read?
Its value is “same (or higher) biological efficacy”.
